Laboratory results taken from patent US20220112309A1, “BISPECIFIC ANTIBODY AGAINST CD3 AND CD20 IN COMBINATION THERAPY FOR TREATING DIFFUSE LARGE B-CELL LYMPHOMA” (GENMAB A/S, priority 2020, published 2022).

Legend:
[1] = test system: Raji; format: cell-based; conditions: 48 hours
Procedure: (§1) Briefly, human Burkitt lymphoma (Raji) and DLBCL (SU-DHL-4) cell lines were used as target cells. Cells were cultured in culture medium (RPMI 1640 with HEPES and L-Glutamine supplemented with 10% heat-inactivated donor bovine serum with iron, and 1% [v/v] penicillin/streptomycin) to which 2 mM L-glutamine and 1 mM sodium pyruvate were added, at 37° C., 5% CO2. T cells, isolated from human healthy donor buffy coats (Sanquin) by negative selection using the RosetteSep™ Human T Cell Enrichment Cocktail (Stemcell Technologies), followed by density centrifugation over a Ficoll gradient, both according to the manufacturer's instructions, were used as effector cells. Isolated cells were washed twice in phosphate buffered saline (PBS) and counted using acridine orange/propidium iodide (AO/PI) viability staining solution (Nexcelom Bioscience) on a Cellometer® Auto 2000 Cell Viability Counter. […] B-cell viability and T-cell activation were measured by flow cytometry (count of CD22-positive cells; expression of the T-cell activation markers CD69, CD25, programmed cell death protein 1 (PD-1), and CD107 [lysosomal associated membrane protein 1; LAMP-1] on CD4+ and CD8+ T cells). Absolute cell numbers were determined by adding Accucheck Counting beads (100 μL/well) (Thermofisher) and calculated as follows:
(§2) Correction factor=([bead count1+bead count2]/average bead countplate)
(§3) Absolute cell number=[cell countsample/correction factor] • The percentage cytotoxicity was calculated as follows:
(§4) % cytotoxicity=100−([absolute cell numbersample/absolute cell numberno antibody]×100%)

[2] = test system: SU-DHL-4; format: cell-based; conditions: SU-DHL-4 cells, 48 hours
Procedure: as §1, §2, §3, §4

[3] = test system: SU-DHL-4; assay: in vitro T-cell activation assay, T cells incubated with SU-DHL-4 cells; format: cell-based, human; conditions: SU-DHL-4 target cells, 48 hours
Procedure: as §1, with “follows: […]” for “follows:”

[4] = test system: Raji; assay: in vitro T-cell activation assay, T cells incubated with Raji cells; format: cell-based, human; conditions: Raji target cells, 48 hours
Procedure: as §1, with “follows: […]” for “follows:”

[5] = test system: R/R B-NHL; assay: ongoing clinical trial of epcoritamab monotherapy (NCT03625037); format: in vivo
From the text: Epcoritamab as monotherapy is currently in a clinical trial for the treatment of relapsed/refractory (R/R) B-NHL (ClinicalTrials.gov Identifier: NCT03625037).

[6] = gemcitabine and/or oxaliplatin at EC30 concentrations, with or without epcoritamab
[7] = epcoritamab 0.01 pg/mL-100 ng/mL, flow cytometry
[8] = gemcitabine 1 nM, oxaliplatin 0.3 μM
[9] = epcoritamab alone 0.01 pg/mL-100 ng/mL

Molecule | cytotoxicity of B cells [1, 6] | cytotoxicity of B cells [2, 6] | T-cell activation (upregulation of CD69, CD25, PD-1, and LAMP-1 expression) [3, 7] | Epcoritamab-induced T-cell activation in the presence of gemcitabine, oxaliplatin, or the combination [3, 8] | T-cell activation (upregulation of CD69, CD25, PD-1, and LAMP-1 expression) [4, 7] | Epcoritamab-induced T-cell activation in the presence of gemcitabine, oxaliplatin, or the combination [4, 8] | dose-limiting toxicities ([5]; human, in vivo) | tolerated dose ([5]; monotherapy, R/R B-NHL patients, preliminary data) | T-cell-mediated cytotoxicity (decrease in the number of viable B cells) [1, 9] | T-cell-mediated cytotoxicity (decrease in the number of viable B cells) [2, 9]
Nc1ccn(C2OC(CO)C(O)C2(F)F)c(=O)n1 (stereo not shown) [gemcitabine, 4-amino-1-[3,3-difluoro-4-hydroxy-5-(hydroxymethyl)oxolan-2-yl]-1,2-dihydropyrimidin-2-one, reference compound] | induced cytotoxicity of B cells | induced cytotoxicity of B cells | – | – | – | – | – | – | – | –
epcoritamab: IgG1 bispecific CD3xCD20 antibody; heavy and light chain pairs of SEQ ID NOs: 24 and 25, and 26 and 27; CAS 2134641-34-0 | – | – | concentration-dependent activation of both CD4+ (data not shown) and CD8+ T cells | not affected | concentration-dependent activation of both CD4+ (data not shown) and CD8+ T cells | not affected | no dose-limiting toxicities reported | tolerated at doses up to at least 48 mg, including 60 mg | concentration-dependent T-cell-mediated cytotoxicity | concentration-dependent T-cell-mediated cytotoxicity
